Experimental data reported in US6339042B1, “Herbicidal N-cyclohexadienyl heteroaryloxyacetamides” (American Cyanamid Co., priority 1999, dated 2002).

Key:
Conditions in all cases: three weeks after treatment
[1] = tested on: Alopecurus myosuroides; test: Pre-emergence herbicidal evaluation, ALOMY; assay type: in vivo
From the text: (§1) The treated pots are then placed on greenhouse benches, watered and cared for in accordance with conventional greenhouse procedures.

[2] = tested on: Oryza sativum; test: Post-emergence herbicidal evaluation, ORYSA
Method: (§2) The compounds of the invention are tested for pre- and post-emergence herbicidal activity.
(§3) Each pot is examined three weeks after treatment and phytotoxicity is assessed according to the rating system set forth below.
(§4) These acetone solutions are diluted with water and the resulting formulations applied at dosage levels equivalent of about 0.4 to 0.1 kg per hectare of test compound per pot. After spraying the plants are placed on greenhouse benches and are cared for in the usual manner, commensurate with conventional greenhouse practices.

[3] = tested on: Glycine max; test: Post-emergence herbicidal evaluation, GLXMA
Method: as §3, §4

[4] = tested on: Echinochloa crus-galli; test: Post-emergence herbicidal evaluation, ECHCG
Method: as §2, §3, §4

[5] = tested on: Setaria viridis; test: Pre-emergence herbicidal evaluation, SETVI; assay type: in vivo
From the text: as §1

[6] = tested on: Hordeum vulgare; test: Post-emergence herbicidal evaluation, HORVW
[7] = tested on: Alopecurus myosuroides; test: Post-emergence herbicidal evaluation, ALOMY
Method: as §2, §3, §4

[8] = tested on: Galium aparine; test: Pre-emergence herbicidal evaluation, GALAP; assay type: in vivo
From the text: as §1

[9] = tested on: Zea mays; test: Pre-emergence herbicidal evaluation, ZEAMX; assay type: in vivo
From the text: as §1

[10] = tested on: Triticum aestivum; test: Post-emergence herbicidal evaluation, TRZAW
[11] = tested on: Apera spica venti; test: Post-emergence herbicidal evaluation, APESV
[12] = tested on: Hordeum vulgare; test: Pre-emergence herbicidal evaluation, HORVW; assay type: in vivo
From the text: as §1

[13] = tested on: Lolium perenne; test: Pre-emergence herbicidal evaluation, LOLPE; assay type: in vivo
From the text: as §1

[14] = tested on: Oryza sativum; test: Pre-emergence herbicidal evaluation, ORYSA; assay type: in vivo
From the text: as §1

[15] = tested on: Triticum aestivum; test: Pre-emergence herbicidal evaluation, TRZAW; assay type: in vivo
From the text: as §1

[16] = tested on: Echinochloa crus-galli; test: Pre-emergence herbicidal evaluation, ECHCG; assay type: in vivo
From the text: as §1

[17] = tested on: Zea mays; test: Post-emergence herbicidal evaluation, ZEAMX
[18] = tested on: Amaranthus tuberculatus; test: Pre-emergence herbicidal evaluation, AMATA; assay type: in vivo
From the text: as §1

[19] = tested on: Amaranthus tuberculatus; test: Post-emergence herbicidal evaluation, AMATA; assay type: in vivo
[20] = tested on: Glycine max; test: Pre-emergence herbicidal evaluation, GLXMA; assay type: in vivo
From the text: as §1

[21] = tested on: Setaria viridis; test: Post-emergence herbicidal evaluation, SETVI
Method: as §2, §3, §4

[22] = tested on: Galium aparine; test: Post-emergence herbicidal evaluation, GALAP
[23] = tested on: Lolium perenne; test: Post-emergence herbicidal evaluation, LOLPE
[24] = tested on: Apera spica venti; test: Pre-emergence herbicidal evaluation, APESV; assay type: in vivo
From the text: as §1

CCN(C(=O)COc1nnc(C(F)(F)F)s1)C1=CC(C)(C)CC(C)=C1 [Example 1]
4 (4 - Injury): phytotoxicity rating GLXMA ([3]; 0.100 kg/ha) | phytotoxicity rating GLXMA ([3]; 0.400 kg/ha) | phytotoxicity rating ECHCG ([4]; 0.200 kg/ha) | phytotoxicity rating SETVI ([5]; 0.100 kg/ha) | phytotoxicity rating GALAP ([8]; 0.200 kg/ha) | phytotoxicity rating GALAP ([8]; 0.400 kg/ha) | phytotoxicity rating GALAP ([8]; 0.800 kg/ha) | phytotoxicity rating ZEAMX ([9]; 0.800 kg/ha) | phytotoxicity rating HORVW ([12]; 0.400 kg/ha) | phytotoxicity rating HORVW ([12]; 0.800 kg/ha) | phytotoxicity rating TRZAW ([15]; 0.800 kg/ha) | phytotoxicity rating ECHCG ([16]; 0.100 kg/ha)
3 (3 - Moderate effect): phytotoxicity rating ALOMY ([1]; 0.200 kg/ha) | phytotoxicity rating ORYSA ([2]; 0.400 kg/ha) | phytotoxicity rating LOLPE ([13]; 0.200 kg/ha) | phytotoxicity rating ORYSA ([14]; 0.400 kg/ha) | phytotoxicity rating AMATA ([18]; 0.200 kg/ha) | phytotoxicity rating SETVI ([21]; 0.400 kg/ha)
1 (1 - Trace effect): phytotoxicity rating TRZAW ([10]; 0.400 kg/ha) | phytotoxicity rating GALAP ([22]; 0.400 kg/ha)
9 (9 - Complete kill): phytotoxicity rating ALOMY ([1]; 0.400 kg/ha) | phytotoxicity rating LOLPE ([13]; 0.400 kg/ha) | phytotoxicity rating LOLPE ([13]; 0.800 kg/ha) | phytotoxicity rating ECHCG ([16]; 0.400 kg/ha) | phytotoxicity rating ECHCG ([16]; 0.800 kg/ha) | phytotoxicity rating AMATA ([18]; 0.400 kg/ha) | phytotoxicity rating AMATA ([18]; 0.800 kg/ha) | phytotoxicity rating APESV ([24]; 0.400 kg/ha) | phytotoxicity rating APESV ([24]; 0.800 kg/ha)
5 (5 - Definite injury): phytotoxicity rating GLXMA ([3]; 0.200 kg/ha) | phytotoxicity rating APESV ([11]; 0.100 kg/ha)
6 (6 - Herbicidal effect): phytotoxicity rating ALOMY ([7]; 0.100 kg/ha) | phytotoxicity rating ALOMY ([7]; 0.200 kg/ha) | phytotoxicity rating LOLPE ([23]; 0.100 kg/ha) | phytotoxicity rating APESV ([24]; 0.100 kg/ha)
8 (8 - Approaching complete kill): phytotoxicity rating SETVI ([5]; 0.400 kg/ha) | phytotoxicity rating SETVI ([5]; 0.800 kg/ha) | phytotoxicity rating ALOMY ([7]; 0.400 kg/ha) | phytotoxicity rating APESV ([11]; 0.200 kg/ha) | phytotoxicity rating APESV ([11]; 0.400 kg/ha) | phytotoxicity rating ECHCG ([16]; 0.200 kg/ha) | phytotoxicity rating LOLPE ([23]; 0.200 kg/ha) | phytotoxicity rating LOLPE ([23]; 0.400 kg/ha) | phytotoxicity rating APESV ([24]; 0.200 kg/ha)
7 (7 - Good herbicidal effect): phytotoxicity rating ALOMY ([1]; 0.800 kg/ha) | phytotoxicity rating ECHCG ([4]; 0.400 kg/ha) | phytotoxicity rating SETVI ([5]; 0.200 kg/ha)
0 (0 - No effect): phytotoxicity rating ORYSA ([2]; 0.100 kg/ha) | phytotoxicity rating ORYSA ([2]; 0.200 kg/ha) | phytotoxicity rating HORVW ([6]; 0.100 kg/ha) | phytotoxicity rating HORVW ([6]; 0.200 kg/ha) | phytotoxicity rating HORVW ([6]; 0.400 kg/ha) | phytotoxicity rating GALAP ([8]; 0.100 kg/ha) | phytotoxicity rating ZEAMX ([9]; 0.100 kg/ha) | phytotoxicity rating ZEAMX ([9]; 0.200 kg/ha) | phytotoxicity rating TRZAW ([10]; 0.100 kg/ha) | phytotoxicity rating TRZAW ([10]; 0.200 kg/ha) | phytotoxicity rating ORYSA ([14]; 0.100 kg/ha) | phytotoxicity rating ORYSA ([14]; 0.200 kg/ha) | phytotoxicity rating TRZAW ([15]; 0.100 kg/ha) | phytotoxicity rating TRZAW ([15]; 0.200 kg/ha) | phytotoxicity rating ZEAMX ([17]; 0.100 kg/ha) | phytotoxicity rating ZEAMX ([17]; 0.200 kg/ha) | phytotoxicity rating ZEAMX ([17]; 0.400 kg/ha) | phytotoxicity rating AMATA ([18]; 0.100 kg/ha) | phytotoxicity rating AMATA ([19]; 0.100 kg/ha) | phytotoxicity rating AMATA ([19]; 0.200 kg/ha) | phytotoxicity rating AMATA ([19]; 0.400 kg/ha) | phytotoxicity rating GLXMA ([20]; 0.100 kg/ha) | phytotoxicity rating GLXMA ([20]; 0.200 kg/ha) | phytotoxicity rating SETVI ([21]; 0.100 kg/ha) | phytotoxicity rating GALAP ([22]; 0.100 kg/ha) | phytotoxicity rating GALAP ([22]; 0.200 kg/ha)
2 (2 - Slight effect): phytotoxicity rating ALOMY ([1]; 0.100 kg/ha) | phytotoxicity rating ECHCG ([4]; 0.100 kg/ha) | phytotoxicity rating ZEAMX ([9]; 0.400 kg/ha) | phytotoxicity rating HORVW ([12]; 0.100 kg/ha) | phytotoxicity rating HORVW ([12]; 0.200 kg/ha) | phytotoxicity rating LOLPE ([13]; 0.100 kg/ha) | phytotoxicity rating TRZAW ([15]; 0.400 kg/ha) | phytotoxicity rating GLXMA ([20]; 0.400 kg/ha) | phytotoxicity rating GLXMA ([20]; 0.800 kg/ha) | phytotoxicity rating SETVI ([21]; 0.200 kg/ha)

CC1=CC(N(C)C(=O)COc2nc3ccccc3o2)=CC(C)(C)C1 [Example 16]
6 (6 - Herbicidal effect): phytotoxicity rating ALOMY ([1]; 0.100 kg/ha) | phytotoxicity rating APESV ([11]; 0.200 kg/ha) | phytotoxicity rating ECHCG ([16]; 0.200 kg/ha) | phytotoxicity rating LOLPE ([23]; 0.200 kg/ha)
5 (5 - Definite injury): phytotoxicity rating SETVI ([5]; 0.100 kg/ha) | phytotoxicity rating ALOMY ([7]; 0.200 kg/ha) | phytotoxicity rating ORYSA ([14]; 0.800 kg/ha) | phytotoxicity rating ECHCG ([16]; 0.100 kg/ha)
0 (0 - No effect): phytotoxicity rating ORYSA ([2]; 0.100 kg/ha) | phytotoxicity rating ORYSA ([2]; 0.200 kg/ha) | phytotoxicity rating ECHCG ([4]; 0.100 kg/ha) | phytotoxicity rating ECHCG ([4]; 0.200 kg/ha) | phytotoxicity rating ECHCG ([4]; 0.400 kg/ha) | phytotoxicity rating HORVW ([6]; 0.100 kg/ha) | phytotoxicity rating HORVW ([6]; 0.200 kg/ha) | phytotoxicity rating ZEAMX ([9]; 0.100 kg/ha) | phytotoxicity rating ZEAMX ([9]; 0.200 kg/ha) | phytotoxicity rating ZEAMX ([9]; 0.400 kg/ha) | phytotoxicity rating ZEAMX ([9]; 0.800 kg/ha) | phytotoxicity rating TRZAW ([10]; 0.100 kg/ha) | phytotoxicity rating TRZAW ([10]; 0.200 kg/ha) | phytotoxicity rating TRZAW ([10]; 0.400 kg/ha) | phytotoxicity rating APESV ([11]; 0.100 kg/ha) | phytotoxicity rating HORVW ([12]; 0.100 kg/ha) | phytotoxicity rating HORVW ([12]; 0.200 kg/ha) | phytotoxicity rating LOLPE ([13]; 0.100 kg/ha) | phytotoxicity rating LOLPE ([13]; 0.200 kg/ha) | phytotoxicity rating ORYSA ([14]; 0.100 kg/ha) | phytotoxicity rating ORYSA ([14]; 0.200 kg/ha) | phytotoxicity rating TRZAW ([15]; 0.100 kg/ha) | phytotoxicity rating TRZAW ([15]; 0.200 kg/ha) | phytotoxicity rating TRZAW ([15]; 0.400 kg/ha) | phytotoxicity rating ZEAMX ([17]; 0.100 kg/ha) | phytotoxicity rating ZEAMX ([17]; 0.200 kg/ha) | phytotoxicity rating ZEAMX ([17]; 0.400 kg/ha) | phytotoxicity rating AMATA ([18]; 0.100 kg/ha) | phytotoxicity rating GLXMA ([20]; 0.100 kg/ha) | phytotoxicity rating GLXMA ([20]; 0.200 kg/ha) | phytotoxicity rating GLXMA ([20]; 0.400 kg/ha) | phytotoxicity rating GLXMA ([20]; 0.800 kg/ha) | phytotoxicity rating SETVI ([21]; 0.100 kg/ha) | phytotoxicity rating SETVI ([21]; 0.200 kg/ha) | phytotoxicity rating SETVI ([21]; 0.400 kg/ha)
2 (2 - Slight effect): phytotoxicity rating ORYSA ([2]; 0.400 kg/ha) | phytotoxicity rating GLXMA ([3]; 0.100 kg/ha) | phytotoxicity rating HORVW ([6]; 0.400 kg/ha) | phytotoxicity rating ALOMY ([7]; 0.100 kg/ha) | phytotoxicity rating HORVW ([12]; 0.400 kg/ha) | phytotoxicity rating ORYSA ([14]; 0.400 kg/ha)
8 (8 - Approaching complete kill): phytotoxicity rating ALOMY ([1]; 0.200 kg/ha) | phytotoxicity rating ALOMY ([1]; 0.400 kg/ha) | phytotoxicity rating SETVI ([5]; 0.200 kg/ha) | phytotoxicity rating LOLPE ([13]; 0.800 kg/ha) | phytotoxicity rating APESV ([24]; 0.400 kg/ha)
7 (7 - Good herbicidal effect): phytotoxicity rating ALOMY ([7]; 0.400 kg/ha) | phytotoxicity rating ECHCG ([16]; 0.400 kg/ha) | phytotoxicity rating AMATA ([18]; 0.800 kg/ha) | phytotoxicity rating LOLPE ([23]; 0.400 kg/ha)
4 (4 - Injury): phytotoxicity rating GLXMA ([3]; 0.400 kg/ha) | phytotoxicity rating APESV ([11]; 0.400 kg/ha) | phytotoxicity rating GALAP ([22]; 0.400 kg/ha) | phytotoxicity rating LOLPE ([23]; 0.100 kg/ha) | phytotoxicity rating APESV ([24]; 0.200 kg/ha)
1 (1 - Trace effect): phytotoxicity rating TRZAW ([15]; 0.800 kg/ha)
9 (9 - Complete kill): phytotoxicity rating ALOMY ([1]; 0.800 kg/ha) | phytotoxicity rating SETVI ([5]; 0.400 kg/ha) | phytotoxicity rating SETVI ([5]; 0.800 kg/ha) | phytotoxicity rating ECHCG ([16]; 0.800 kg/ha) | phytotoxicity rating APESV ([24]; 0.800 kg/ha)
3 (3 - Moderate effect): phytotoxicity rating GLXMA ([3]; 0.200 kg/ha) | phytotoxicity rating HORVW ([12]; 0.800 kg/ha) | phytotoxicity rating LOLPE ([13]; 0.400 kg/ha) | phytotoxicity rating AMATA ([18]; 0.200 kg/ha) | phytotoxicity rating AMATA ([18]; 0.400 kg/ha) | phytotoxicity rating AMATA ([19]; 0.100 kg/ha) | phytotoxicity rating AMATA ([19]; 0.400 kg/ha) | phytotoxicity rating GALAP ([22]; 0.100 kg/ha) | phytotoxicity rating GALAP ([22]; 0.200 kg/ha)
